# Reference: PubChem BioAssay (NCI)
# Values joined by “and” are separate entries in the source; they are usually repeats but may differ in a detail not shown here. Equal entries are not always repeated.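 Where inhibition never reached the appropriate level, the endpoint shown equals the highest concentration tested. Otherwise, values were interpolated linearly from a five-concentration, 48-hour dose response in 96-well plates. GI50: concentration for 50% inhibition of growth. TGI: concentration producing complete growth inhibition.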
# Assays:
# Assay in all cases: inhibition of tumour cell growth, NCI panel, 48 h
# [1] = tested on: NCI-H226 lung
# [2] = tested on: CAKI-1 renal
# [3] = tested on: SK-MEL-5 melanoma
# [4] = tested on: HOP-92 NSCLC
# [5] = tested on: 786-0 renal
# [6] = tested on: BT-549 breast
# [7] = tested on: MOLT-4 leukemia
# [8] = tested on: SK-MEL-28 melanoma
# [9] = tested on: NCI-H522 lung
# [10] = tested on: HOP-62 NSCLC
# [11] = tested on: OVCAR-3 ovarian
# [12] = tested on: HL-60(TB) leukemia
# [13] = tested on: MDA-MB-231 breast
# [14] = tested on: NCI-H460 lung
# [15] = tested on: HCT-116 colon
# [16] = tested on: SR leukemia
# [17] = tested on: U251 CNS
# [18] = tested on: SF-268 CNS
# [19] = tested on: SW-620 colon
# [20] = tested on: SNB-19 CNS
# [21] = tested on: SF-295 CNS
# [22] = tested on: RXF 393 renal
# [23] = tested on: SK-MEL-2 melanoma
# [24] = tested on: M14 melanoma
# [25] = tested on: ACHN renal
# [26] = tested on: SN12C renal
# [27] = tested on: COLO 205 colon
# [28] = tested on: T-47D breast
# [29] = tested on: CCRF-CEM leukemia
# [30] = tested on: SF-539 CNS
# [31] = tested on: A549 NSCLC
# [32] = tested on: MDA-MB-435
# [33] = tested on: RPMI-8226 leukemia
# [34] = tested on: UACC-62 melanoma
# [35] = tested on: A498 renal
# [36] = tested on: OVCAR-4 ovarian
# [37] = tested on: UACC-257 melanoma
# [38] = tested on: TK-10 renal
# [39] = tested on: UO-31 renal
# [40] = tested on: HT29 colon
# [41] = tested on: MALME-3M melanoma
# [42] = tested on: K-562 leukemia
# [43] = tested on: NCI-H23 lung
# [44] = tested on: OVCAR-5 ovarian
# [45] = tested on: LOX IMVI melanoma
# [46] = tested on: DU-145 prostate
# [47] = tested on: SNB-75 CNS
# [48] = tested on: MCF7 breast
# [49] = tested on: OVCAR-8 ovarian
# [50] = tested on: KM12 colon
# [51] = tested on: HCC-2998 colon
# [52] = tested on: PC-3 prostate
# [53] = tested on: MDA-N
# [54] = tested on: HCT-15 colon
# [55] = tested on: EKVX NSCLC
# [56] = tested on: HS 578T breast
# [57] = tested on: IGROV1 ovarian
# [58] = tested on: NCI/ADR-RES ovarian
# [59] = tested on: SK-OV-3 ovarian
# [60] = tested on: KM20L2 colon
# [61] = tested on: HOP-18 NSCLC
# [62] = tested on: DLD-1 colon
# [63] = tested on: DMS 273 small cell lung
# [64] = tested on: DMS 114 small cell lung
# [65] = tested on: M19-MEL melanoma
# [66] = tested on: LXFL 529 NSCLC
compound,measurement,setting,value
COc1ccc2c(c1)C(=O)C(=O)c1cc(O)c(OC)c(OC)c1-2,GI50,[1],1950 nM
same,TGI,[1],14.3 µM and 3.9 µM
same,GI50,[2],1770 nM
same,TGI,[2],1.67 µM and 3.15 µM
same,GI50,[3],1680 nM
same,TGI,[3],1.53 µM and 3.07 µM
same,GI50,[4],1700 nM
same,TGI,[4],1.79 µM and 3.19 µM
same,GI50,[5],1850 nM
same,TGI,[5],1.72 µM and 3.26 µM
same,GI50,[6],1660 nM
same,TGI,[6],1.44 µM and 3.02 µM
same,GI50,[7],2380 nM
same,TGI,[7],0.746 µM and 5.74 µM
same,GI50,[8],1880 nM
same,TGI,[8],1.67 µM and 3.58 µM
same,GI50,[9],1920 nM
same,TGI,[9],1.74 µM and 3.55 µM
same,GI50,[10],1150 nM
same,TGI,[10],1720 nM and 2580 nM
same,GI50,[11],1650 nM
same,TGI,[11],3.63 µM and 3.11 µM
same,TGI,[12],0.681 µM
same,GI50,[13],2100 nM
same,TGI,[13],1.91 µM and 3.87 µM
same,GI50,[14],1640 nM
same,TGI,[14],9.97 µM and 3.16 µM
same,GI50,[15],1720 nM
same,TGI,[15],1.6 µM and 3.09 µM
same,TGI,[16],6.39 µM
same,GI50,[17],1780 nM
same,TGI,[17],1.64 µM and 3.16 µM
same,GI50,[18],1860 nM
same,TGI,[18],1.96 µM and 3.26 µM
same,GI50,[19],2800 nM
same,TGI,[19],3.18 µM and 9.14 µM
same,GI50,[20],1850 nM
same,TGI,[20],2.38 µM and 3.28 µM
same,GI50,[21],1770 nM
same,TGI,[21],1.65 µM and 3.15 µM
same,GI50,[22],1560 nM
same,TGI,[22],1.65 µM and 3.63 µM
same,GI50,[23],1950 nM
same,TGI,[23],1.62 µM and 3.42 µM
same,GI50,[24],1730 nM
same,TGI,[24],1.71 µM and 3.11 µM
same,GI50,[25],1970 nM
same,TGI,[25],1.59 µM and 3.38 µM
same,GI50,[26],1710 nM
same,TGI,[26],1.6 µM and 3.08 µM
same,GI50,[27],1890 nM
same,TGI,[27],3.54 µM and 3.74 µM
same,GI50,[28],1750 nM
same,TGI,[28],2.81 µM and 3.13 µM
same,GI50,[29],451 nM
same,TGI,[29],2650 nM and 2920 nM
same,TGI,[30],3.35 µM
same,GI50,[31],1960 nM
same,TGI,[31],12.1 µM and 3.89 µM
same,GI50,[32],291 nM
same,TGI,[32],272 nM and 807 nM
same,GI50,[33],1560 nM
same,TGI,[33],2.67 µM and 3.81 µM
same,GI50,[34],1760 nM
same,TGI,[34],1.54 µM and 3.16 µM
same,GI50,[35],5.07 µM
same,TGI,[35],10.5 µM and 12.9 µM
same,GI50,[36],1560 nM
same,TGI,[36],1590 nM and 2900 nM
same,GI50,[37],1550 nM
same,TGI,[37],1610 nM and 2890 nM
same,GI50,[38],1690 nM
same,TGI,[38],1.77 µM and 3.05 µM
same,TGI,[39],1.7 µM
same,TGI,[40],3.83 µM
same,GI50,[41],1220 nM
same,TGI,[41],1530 nM and 2460 nM
same,TGI,[42],3.01 µM
same,GI50,[43],1770 nM
same,TGI,[43],1.77 µM and 4.23 µM
same,GI50,[44],1650 nM
same,TGI,[44],2.42 µM and 3.13 µM
same,GI50,[45],1480 nM
same,TGI,[45],1.83 µM and 3.16 µM
same,GI50,[46],1740 nM
same,TGI,[46],1.75 µM and 3.12 µM
same,GI50,[47],1690 nM
same,TGI,[47],2.85 µM and 3.06 µM
same,GI50,[48],1960 nM
same,TGI,[48],1.74 µM and 3.59 µM
same,GI50,[49],1620 nM
same,TGI,[49],1600 nM and 2980 nM
same,TGI,[50],3.28 µM
same,TGI,[51],10.5 µM and 14.1 µM
same,GI50,[52],1930 nM
same,TGI,[52],2.48 µM and 3.34 µM
same,GI50,[53],1280 nM
same,TGI,[53],1400 nM and 2550 nM
same,GI50,[54],1730 nM
same,TGI,[54],1.78 µM and 3.53 µM
same,GI50,[55],457 nM
same,TGI,[55],2090 nM and 1680 nM
same,GI50,[56],2790 nM
same,TGI,[56],2.78 µM and 8.57 µM
same,GI50,[57],1710 nM
same,TGI,[57],1.56 µM and 3.08 µM
same,GI50,[58],1840 nM
same,TGI,[58],2.41 µM and 5.22 µM
same,GI50,[59],1790 nM
same,TGI,[59],7.27 µM and 3.17 µM
O=C(O)CCC(=O)c1ccc2ccc3cccc4ccc1c2c34,TGI,[1],> 100 µM
same,TGI,[2],> 100 µM
same,TGI,[3],> 100 µM
same,TGI,[4],> 100 µM
same,TGI,[5],> 100 µM
same,TGI,[6],> 100 µM
same,TGI,[7],> 100 µM
same,TGI,[8],> 100 µM
same,TGI,[9],> 100 µM
same,TGI,[10],> 100000 nM
same,TGI,[11],> 100 µM
same,TGI,[12],> 100 µM
same,TGI,[13],> 100 µM
same,TGI,[14],> 100 µM
same,TGI,[15],> 100 µM
same,TGI,[16],> 100 µM
same,TGI,[17],> 100 µM
same,TGI,[18],> 100 µM
same,TGI,[19],> 100 µM
same,TGI,[20],> 100 µM
same,TGI,[21],> 100 µM
same,TGI,[22],> 100 µM
same,TGI,[23],> 100 µM
same,TGI,[24],> 100 µM
same,TGI,[25],> 100 µM
same,TGI,[26],> 100 µM
same,TGI,[27],> 100 µM
same,TGI,[28],> 100 µM
same,TGI,[29],> 100000 nM
same,TGI,[30],68 µM
same,TGI,[31],> 100 µM
same,TGI,[32],> 100000 nM
same,TGI,[33],> 100 µM
same,TGI,[34],> 100 µM
same,TGI,[35],> 100 µM
same,TGI,[36],> 100000 nM
same,TGI,[37],> 100000 nM
same,TGI,[38],> 100 µM
same,TGI,[39],> 100 µM
same,TGI,[40],> 100 µM
same,TGI,[41],> 100000 nM
same,TGI,[42],> 100 µM
same,TGI,[43],> 100 µM
same,TGI,[44],> 100 µM
same,TGI,[45],> 100 µM
same,TGI,[46],> 100 µM
same,TGI,[47],> 100 µM
same,TGI,[48],> 100 µM
same,TGI,[49],> 100000 nM
same,TGI,[50],> 100 µM
same,TGI,[51],> 100 µM
same,TGI,[52],> 100 µM
same,TGI,[53],> 100000 nM
same,TGI,[54],> 100 µM
same,TGI,[55],> 100000 nM
same,TGI,[56],> 100 µM
same,TGI,[57],> 100 µM
same,TGI,[58],> 100 µM
same,TGI,[59],> 100 µM
CCCCCCCCOC(CO)CO,TGI,[1],> 100 µM
same,TGI,[2],> 100 µM
same,TGI,[3],> 100 µM
same,TGI,[4],> 100 µM
same,TGI,[5],> 100 µM
same,TGI,[60],> 100 µM
same,TGI,[7],> 100 µM
same,TGI,[8],> 100 µM
same,TGI,[10],> 100000 nM
same,TGI,[61],> 100 µM
same,TGI,[11],> 100 µM
same,TGI,[12],> 100 µM
same,TGI,[14],> 100 µM
same,TGI,[15],> 100 µM
same,TGI,[16],> 100 µM
same,TGI,[17],> 100 µM
same,TGI,[18],> 100 µM
same,TGI,[19],> 100 µM
same,TGI,[62],> 100 µM
same,TGI,[20],> 100 µM
same,TGI,[21],> 100 µM
same,TGI,[24],> 100 µM
same,TGI,[25],> 100 µM
same,TGI,[26],> 100 µM
same,TGI,[27],> 100 µM
same,TGI,[29],> 100000 nM
same,TGI,[63],> 100 µM
same,TGI,[31],> 100 µM
same,TGI,[33],> 100 µM
same,TGI,[64],> 100 µM
same,TGI,[34],> 100 µM
same,TGI,[35],> 100 µM
same,TGI,[36],> 100000 nM
same,TGI,[37],> 100000 nM
same,TGI,[38],> 100 µM
same,TGI,[39],> 100 µM
same,TGI,[40],> 100 µM
same,TGI,[41],> 100000 nM
same,TGI,[65],> 100 µM
same,TGI,[42],> 100 µM
same,TGI,[43],> 100 µM
same,TGI,[44],> 100 µM
same,TGI,[45],> 100 µM
same,TGI,[66],> 100 µM
same,TGI,[49],> 100000 nM
same,TGI,[51],> 100 µM
same,TGI,[54],> 100 µM
same,TGI,[57],> 100 µM
same,TGI,[59],> 100 µM
